Laboratory results from patent US9278958B2, “Anti-cancer compounds” (KATHOLIEKE UNIVERSITEIT LEUVEN, priority 2012, dated 2016).
Read-outs that look alike come from different tables or passages of the source. One block for each molecule: values may come before it.

What was measured:
[1] = test system: OST TK- osteosarcoma cells; assay: Cytostatic assay, OST TK-; type: cell-based; settings: Homo sapiens; Table 3
Method in brief: (§1)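 Read-out is the cell number after incubation, counted electronically (Coulter). Cultures started from 5-7.5×10^4 cells per well exposed to compound, kept 48 h to 96 h at 37° C under humidified CO2 control.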

[2] = test system: HeLa cervix carcinoma cells; assay: Cytostatic assay, HeLa; type: cell-based, human; settings: Homo sapiens; Table 3; read-out: Cytostatic activity (μM) Hela
Method in brief: as §1

[3] = test system: PNT1A (UZ) prostate cells; assay: Cytostatic assay, PNT1A (UZ); type: cell-based; settings: Homo sapiens, Table 4
Method in brief: as §1

[4] = test system: PC3 (rega) prostate cancer cells; assay: Cytostatic assay, PC3 (rega); type: cell-based; settings: Table 4
Method in brief: as §1

[5] = test system: DU145 (UZ) prostate cancer cells; assay: Cytostatic assay, DU145 (UZ); type: cell-based; settings: Homo sapiens, DU-145; Table 4
Method in brief: as §1

[6] = test system: DNA synthesis in CEM cells; assay: Antimetabolic activity assay, [CH3-3H]dThd incorporation (DNA synthesis), CEM; type: cell-based; settings: Homo sapiens, CCRF-CEM, incorporation into TCA-insoluble material
Protocol: (§2) Radiolabeled precursors of DNA synthesis ([^3H-methyl]dThd), RNA synthesis ([5-^3H]Urd), and protein synthesis ([4,5-^3H]leu) were added to 10^5 CEM cell cultures in the 200 μl-wells of a microtiter plate at 1 μCi for each precursor in the presence of varying concentrations of the test compounds (5-fold dilution series). The cells were allowed to proliferate for 20 hrs at 37° C. in a humidified, CO2-controlled atmosphere. At the end of the incubation period, the contents of the wells were brought onto 25-mm glass fiber filters and further processed for measurement of acid-insoluble radioactivity.

[7] = test system: Raji, human B-lymphoma cells; assay: Cytostatic assay, Raji; type: cell-based; settings: Table 2
Method in brief: as §1

HUT-78 cells = assay: Cytostatic assay, HUT-78; type: cell-based; settings: Homo sapiens, HuT78; Table 2
Method in brief: as §1

[8] = test system: U87 CD4+/CXCR4+/CCR5+ glioma cells; assay: Cytostatic assay, U87 CD4+/CXCR4+/CCR5+; type: cell-based; settings: Homo sapiens, Glioma cell; Table 3
Protocol: (§3) To each well of a 96-well microtiter plate were added 5-7.5×10^4 cells and a given amount of the test compound. The cells were allowed to proliferate for 48 h to 96 h (depending on the nature of the cell line) at 37° C. in a humidified CO2-controlled atmosphere. At the end of the incubation period, the cells were counted in a Coulter Counter (Coulter Electronics Ltd, Harpenden Herts, United Kingdom).

[9] = test system: Daudi, human B-lymphoma cells; assay: Cytostatic assay, Daudi; type: cell-based; settings: Table 2
Protocol: as §3

[10] = test system: MCF-7 mammary carcinoma cells; assay: Cytostatic assay, MCF-7; type: cell-based; settings: Homo sapiens, MCF7; Table 3
Method in brief: as §1

[11] = test system: BAEC aortic endothelial cells; assay: Cytostatic assay, BAEC; type: cell-based, bovine; settings: Bos taurus, Table 3
Method in brief: as §1

[12] = test system: PC-3 (UZ) prostate cancer cells; assay: Cytostatic assay, PC-3 (UZ); type: cell-based; settings: Table 4
Method in brief: as §1

[13] = test system: LNCaP (UZ) prostate cancer cells; assay: Cytostatic assay, LNCaP (UZ); type: cell-based; settings: Homo sapiens, Table 4
Method in brief: as §1

[14] = test system: FM3A mammary carcinoma cells; assay: Cytostatic assay, FM3A; type: cell-based, murine; settings: Mus musculus, Table 3
Method in brief: as §1

[15] = test system: THP-1, human monocytic cells; assay: Cytostatic assay, THP-1; type: cell-based; settings: Table 2
Method in brief: as §1

[16] = test system: broad variety of tumor cell lines; assay: Cytostatic assays, summary over the panel of cell lines (Tables 2-4); type: cell-based
Protocol: as §3

[17] = test system: DNA synthesis in Raji cells; assay: Antimetabolic activity assay, [CH3-3H]dThd incorporation (DNA synthesis), Raji; type: cell-based; settings: Homo sapiens, incorporation into TCA-insoluble material
Protocol: [The procedure below names another cell line; the source lists this cell line under the same test.] as §2

Molt4/C8 cells = assay: Cytostatic assay, Molt4/C8; type: cell-based; settings: Table 2
Method in brief: as §1

[18] = test system: HL60, human leukemia cells; assay: Cytostatic assay, HL-60; type: cell-based; settings: Table 2
Method in brief: as §1

[19] = test system: protein synthesis in CEM cells; assay: Antimetabolic activity assay, [4,5-3H]leucine incorporation (protein synthesis), CEM; type: cell-based; settings: Homo sapiens, CCRF-CEM, incorporation into TCA-insoluble material
Protocol: as §2

CEM cells = assay: Cytostatic assay, CEM; type: cell-based; settings: Homo sapiens, CCRF-CEM
Method in brief: as §1

[20] = test system: 293T embryonic kidney cells; assay: Cytostatic assay, 293T; type: cell-based; settings: Homo sapiens, HEK-293T; Table 3
Method in brief: as §1

BPH-1 (UZ) = assay: Cytostatic assay, BPH-1 (UZ); type: cell-based; settings: Homo sapiens, Table 4
Method in brief: as §1

Huh-7 hepatoma cells = assay: Cytostatic assay, Huh-7; type: cell-based; settings: Homo sapiens, Table 4
Method in brief: as §1

[21] = test system: Caki-1 kidney carcinoma cells; assay: Cytostatic assay, Caki-1; type: cell-based; settings: Homo sapiens, Table 3
Method in brief: as §1

HepG2C3A hepatoma cells = assay: Cytostatic assay, HepG2C3A; type: cell-based; settings: Homo sapiens, HepG2/C3A; Table 4
Method in brief: as §1

[22] = test system: 22Rv1 (UZ) prostate cancer cells; assay: Cytostatic assay, 22Rv1 (UZ); type: cell-based; settings: Homo sapiens, Table 4
Method in brief: as §1

MT-4 cells = assay: Cytostatic assay, MT-4; type: cell-based; settings: Homo sapiens, MT4; Table 2
Method in brief: as §1

[23] = test system: HEL embryonic lung fibroblast cells; assay: Cytostatic assay, HEL; type: cell-based; settings: Homo sapiens, Table 3
Method in brief: as §1

MT-2 cells = assay: Cytostatic assay, MT-2; type: cell-based; settings: Homo sapiens, MT2; Table 2
Method in brief: as §1

C8166 cells = assay: Cytostatic assay, C8166; type: cell-based; settings: Homo sapiens, Table 2
Method in brief: as §1

L1210 cells = assay: Cytostatic assay, L1210; type: cell-based; settings: Mus musculus, Table 2
Method in brief: as §1

U87 glioma cells = assay: Cytostatic assay, U87; type: cell-based; settings: Homo sapiens, U-87 MG; Table 3
Method in brief: as §1

[24] = test system: U937, human monocytic cells; assay: Cytostatic assay, U937; type: cell-based; settings: U-937, Table 2
Method in brief: as §1

[25] = test system: RNA synthesis in Raji cells; assay: Antimetabolic activity assay, [5-3H]uridine incorporation (RNA synthesis), Raji; type: cell-based; settings: Homo sapiens, incorporation into TCA-insoluble material
Protocol: [The procedure below names another cell line; the source lists this cell line under the same test.] as §2

[26] = test system: HOS CD4+ osteosarcoma cells; assay: Cytostatic assay, HOS CD4+; type: cell-based; settings: Homo sapiens; Table 3
Protocol: as §3

[27] = test system: HT29 colorectal carcinoma cells; assay: Cytostatic assay, HT29; type: cell-based; settings: Homo sapiens, HT-29; Table 3
Method in brief: as §1

[28] = test system: RNA synthesis in CEM cells; assay: Antimetabolic activity assay, [5-3H]uridine incorporation (RNA synthesis), CEM; type: cell-based; settings: Homo sapiens, CCRF-CEM, incorporation into TCA-insoluble material
Protocol: as §2

[29] = test system: Caki-2 kidney carcinoma cells; assay: Cytostatic assay, Caki-2; type: cell-based; settings: Homo sapiens, Table 3
Method in brief: as §1

[30] = test system: protein synthesis in Raji cells; assay: Antimetabolic activity assay, [4,5-3H]leucine incorporation (protein synthesis), Raji; type: cell-based; settings: Homo sapiens, incorporation into TCA-insoluble material
Protocol: [The procedure below names another cell line; the source lists this cell line under the same test.] as §2

Sup T1 cells = assay: Cytostatic assay, Sup T1; type: cell-based; settings: Homo sapiens, Table 2, read-out: Cytostatic activity (μM) Sup T 1
Method in brief: as §1

PLC/PRF/5 hepatoma cells = assay: Cytostatic assay, PLC/PRF/5; type: cell-based; settings: Homo sapiens, Table 4
Method in brief: as §1

[31] = Homo sapiens, HuT78, range for the seven compounds, MT-4 and HUT-78 cells, read-out: IC50 range, cytostatic activity against MT-4 and HUT-78 cells
[32] = range for the seven compounds against the 5 tumor cell lines, read-out: IC50 range, cytostatic activity against CEM, Molt4/C8, Sup T1, MT-2 and C8166 cells
[33] = Table 2, read-out: Cytostatic activity (μM) CEM

IC50 [1]: 3.8 ± 1.7 µM | IC50 [2]: 42 ± 5.5 µM | IC50 [3]: 38 ± 7.8 µM | IC50 [4]: 0.29 ± 0.14 µM | IC50 [5]: 9.3 ± 8.4 µM | IC50 [6]: 2.3 ± 1 µM | IC50 [7]: 48 ± 1.4 µM | IC50 (HUT-78 cells): 44 ± 6.4 µM | IC50 [8]: 28 ± 3.5 µM | IC50 [9]: 43 ± 2.8 µM | IC50 [10]: 42 ± 0.71 µM | IC50 [11]: 16 ± 16 µM | IC50 [12]: 0.96 ± 0.2 µM | IC50 [13]: 0.26 ± 0.081 µM | IC50 [14]: 40 ± 3.5 µM | IC50 [15]: 44 ± 1.4 µM | IC50 [16, 31]: 8.5 to 60 µM | IC50 [16, 32]: 0.22 to 3.4 µM | IC50 [17]: ≥ 100 µM | IC50 (Molt4/C8 cells): 0.22 µM | IC50 [18]: 6.2 ± 8.5 µM | IC50 [19]: 0.2 ± 0.07 µM | IC50 (CEM cells; Table 1a, read-out: IC50 μM (CEM)): 0.7 µM | IC50 (CEM cells; [33]): 0.73 ± 0.62 µM | IC50 (BPH-1 (UZ)): 41 ± 1.4 µM | IC50 (Huh-7 hepatoma cells): 1.5 ± 0.28 µM | IC50 [21]: 5.3 ± 2.2 µM | IC50 (HepG2C3A hepatoma cells): 12 ± 2.1 µM | IC50 [22]: 6.3 ± 2.5 µM | IC50 (MT-2 cells): 1.5 ± 0.21 µM | IC50 (C8166 cells): 2.8 ± 0.14 µM | IC50 (L1210 cells): 40 ± 2 µM | IC50 (U87 glioma cells): 37 ± 2.8 µM | IC50 [24]: 41 ± 1.4 µM | IC50 [25]: 60 ± 57 µM | IC50 [26]: 35 ± 7.1 µM | IC50 [27]: 48 ± 23 µM | IC50 [28]: 0.66 ± 0.01 µM | IC50 [29]: 88 ± 17 µM | IC50 [30]: ≥ 100 µM | IC50 (Sup T1 cells): 1.5 ± 0.14 µM | IC50 (PLC/PRF/5 hepatoma cells): 41 ± 6.4 µM
SMILES: CCOC(=O)c1cc(C#Cc2ccc(OC)cc2)sc1N [TR530, 2-Amino-5-(4-methoxy-phenylethynyl)-thiophene-3-carboxylic acid ethyl ester]
IC50 [20]: 37 ± 0.71 µM | IC50 (MT-4 cells): 22 ± 15 µM | IC50 [23]: 35 ± 13 µM

IC50 [1]: 5.4 ± 3.3 µM | IC50 [2]: 39 µM | IC50 [3]: 37 ± 9.9 µM | IC50 [4]: 0.67 ± 0.14 µM | IC50 [5]: 8.4 ± 1.6 µM | IC50 [6]: 11 ± 4 µM | IC50 [7]: 39 ± 2.8 µM | IC50 (HUT-78 cells): 22 ± 9.2 µM | IC50 [8]: 37 ± 9.9 µM | IC50 [9]: 43 ± 2.1 µM | IC50 [10]: 36 ± 5.7 µM | IC50 [11]: 23 ± 0.71 µM | IC50 [12]: 1.1 ± 0.49 µM | IC50 [13]: 0.34 ± 0.05 µM | IC50 [14]: 46 ± 6 µM | IC50 [15]: 23 ± 3.5 µM | IC50 [16, 31]: 8.5 to 60 µM | IC50 [16, 32]: 0.22 to 3.4 µM | IC50 [17]: > 100 µM | IC50 (Molt4/C8 cells): 0.34 µM | IC50 [18]: 7 ± 8.7 µM | IC50 [19]: 1.6 ± 1.1 µM | IC50 (CEM cells; [33]): 1.9 ± 0.99 µM | IC50 (BPH-1 (UZ)): 43 ± 2.8 µM | IC50 (Huh-7 hepatoma cells): 1.6 ± 0.14 µM | IC50 [21]: 4.6 ± 2.1 µM | IC50 (HepG2C3A hepatoma cells): 6.7 ± 0.35 µM | IC50 [22]: 15 ± 7.9 µM | IC50 (MT-2 cells): 1.7 ± 0.14 µM | IC50 (C8166 cells): 3.4 ± 0.071 µM | IC50 (U87 glioma cells): 38 ± 1.4 µM | IC50 [24]: 43 ± 1.4 µM | IC50 [25]: > 100 µM | IC50 [26]: 25 ± 5.7 µM | IC50 [27]: 27 ± 13 µM | IC50 [28]: 3 ± 0.1 µM | IC50 [29]: 66 ± 37 µM | IC50 [30]: ≥ 100 µM | IC50 (Sup T1 cells): 1.5 ± 0.071 µM | IC50 (PLC/PRF/5 hepatoma cells): 24 ± 2.1 µM
SMILES: CCOC(=O)c1cc(CCc2ccc(OC)cc2)sc1N [TR532, 2-Amino-5-[2-(4-methoxy-phenyl)-ethyl]-thiophene-3-carboxylic acid ethyl ester]
IC50 [20]: 41 ± 0.71 µM | IC50 (MT-4 cells): 8.5 ± 0.92 µM | IC50 [23]: 20 ± 8.5 µM
